Experimental data taken from publication PMC2248166, “Quantitative peptide binding motifs for 19 human and mouse MHC class I molecules derived using positional scanning combinatorial peptide libraries” (Immunome Research, 2008).

Legend:
Assay type in all cases: binding
[1] = molecular target: HLA B*5401 (Homo sapiens, UniProt P01889, A329T/C349S/D138N/D201E/E176V/E187T/E204Q/E69G/I76V/K202T/L119W/R155S/R180L/S121T/S35A/S48A/V127L/V306I/V36M/Y140L)
[2] = molecular target: HLA B*1503 (Homo sapiens, UniProt P01889, A329T/A93T/A95T/C349S/D201E/D98Y/E187L/E204Q/K202T/N87E/Q94N/R155S/R180L/S121R/S35A/V306I/V36M/Y140S/Y91S); assay: biochemical
[3] = molecular target: HLA B*5301 (Homo sapiens, UniProt P01889, A329T/A93T/A95T/C349S/D201E/D98Y/E176V/E187L/E204Q/E69T/G107R/I218V/K202T/L105A/L119I/N104I/Q94N/R106L/R155S/R180L/S101N/S121R/S35A/S48A/T118I/V127L/V306I/V36M/Y140S/Y91F)
[4] = molecular target: HLA B*0801 (Homo sapiens, UniProt P01889, A93T/A95T/D138N/E176V/E187T/K202T/Q94N/R180D/S35A/V36M/Y33D/Y91F); assay: biochemical
[5] = molecular target: HLA A*3001 (Homo sapiens, UniProt P04439, D140H/D185E/E176W/F33S/G80R/H175R/K168Q/R138E/R41S); assay: biochemical
[6] = molecular target: HLA A*6802 (Homo sapiens, UniProt P04439, A269V/D140Y/D185E/E176V/E277Q/E87N/F33Y/G231S/I121R/I166T/I218V/L180W/L300P/L318F/N151K/P208A/P217A/Q86R/R138H/R169H/S129P/T345S/V36M)
[7] = molecular target: H-2 D^d (Mus musculus, UniProt P01900)
[8] = molecular target: HLA B*5802 (Homo sapiens, UniProt P01889, A329T/C349S/D201E/D98Y/E176V/E187L/E204Q/E69T/G107R/I218V/I90N/K202T/L105A/N104I/N87E/Q89R/Q94S/R106L/R155S/R180L/R86G/S101N/S121W/S35A/S48A/V127L/V306I/V36M/Y140S/Y91M)
[9] = molecular target: HLA B*3501 (Homo sapiens, UniProt P01889, A329T/A93T/A95T/C349S/D201E/D98Y/E176V/E187L/E204Q/E69T/I218V/K202T/L119I/Q94N/R155S/R180L/S121R/S35A/S48A/T118I/V127L/V306I/V36M/Y140S/Y91F)
[10] = molecular target: H-2 K^d (Mus musculus, UniProt P01902)
[11] = molecular target: H-2 K^k (Mus musculus, UniProt P04223)
[12] = molecular target: HLA B*5801 (Homo sapiens, UniProt P01889, A329T/C349S/D201E/D98Y/E176V/E187L/E204Q/E69T/G107R/I218V/I90N/K202T/L105A/L119I/N104I/N87E/Q89R/Q94S/R106L/R155S/R180L/R86G/S101N/S121R/S35A/S48A/T118I/V127L/V306I/V36M/Y140S/Y91M)
[13] = molecular target: H-2 D^b (Mus musculus, UniProt P01899)
[14] = molecular target: HLA B*5101 (Homo sapiens, UniProt P01889, A329T/A93T/A95T/C349S/D138N/D201E/D98Y/E187L/E204Q/E69T/G107R/I218V/K202T/L105A/L119W/N104I/Q94N/R106L/R155S/R180L/S101N/S121T/S35A/S48A/V306I/V36M/Y195H/Y91F)
[15] = molecular target: HLA A*3201 (Homo sapiens, UniProt P04439, A270S/D101S/D185E/E176V/E277Q/F133L/G103R/G107R/G231S/H175R/I121M/I218V/I322F/K168Q/L105A/L300P/L318F/M331R/P208A/P217A/Q94H/R106L/R138Q/S129P/T104I/T323A/T345S/V100E/V321M/V358M); assay: biochemical
[16] = molecular target: HLA B*1501 (Homo sapiens, UniProt P01889, A329T/A93T/A95T/C349S/D201E/D98Y/E187L/E204Q/E69M/E70A/K202T/N87E/Q94N/R155S/R180W/S121R/S35A/S48A/V306I/V36M/Y140S/Y91S); assay: biochemical

Sequence of H-2 D^b (P01887 21-119): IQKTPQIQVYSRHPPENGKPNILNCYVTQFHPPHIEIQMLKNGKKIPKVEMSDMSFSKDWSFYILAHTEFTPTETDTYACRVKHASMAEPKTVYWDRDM
Sequence of H-2 D^b (P01899 25-362): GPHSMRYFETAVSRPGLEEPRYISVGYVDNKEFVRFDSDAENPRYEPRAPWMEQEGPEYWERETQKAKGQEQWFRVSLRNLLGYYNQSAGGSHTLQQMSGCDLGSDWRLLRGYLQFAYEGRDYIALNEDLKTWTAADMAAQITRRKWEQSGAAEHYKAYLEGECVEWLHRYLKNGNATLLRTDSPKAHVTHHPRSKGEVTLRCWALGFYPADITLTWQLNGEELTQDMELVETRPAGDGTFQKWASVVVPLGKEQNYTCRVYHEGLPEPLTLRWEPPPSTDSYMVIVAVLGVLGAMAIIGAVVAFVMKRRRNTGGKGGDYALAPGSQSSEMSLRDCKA
Sequence of H-2 K^d (P01887 21-119): as the sequence (P01887 21-119) above
Sequence of H-2 K^d (P01902 22-368): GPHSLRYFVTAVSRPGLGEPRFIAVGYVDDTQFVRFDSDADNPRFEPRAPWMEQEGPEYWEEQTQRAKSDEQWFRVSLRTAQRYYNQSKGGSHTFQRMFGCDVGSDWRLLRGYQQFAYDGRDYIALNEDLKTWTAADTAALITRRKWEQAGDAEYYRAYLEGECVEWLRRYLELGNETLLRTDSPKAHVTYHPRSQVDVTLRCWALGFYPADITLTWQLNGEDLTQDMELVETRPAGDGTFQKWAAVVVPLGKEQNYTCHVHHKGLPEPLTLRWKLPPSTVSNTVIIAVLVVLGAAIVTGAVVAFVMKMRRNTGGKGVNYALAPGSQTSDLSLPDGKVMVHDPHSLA
Sequence of H-2 K^k (P01887 21-119): as the sequence (P01887 21-119) above
Sequence of H-2 K^k (P04223 22-369): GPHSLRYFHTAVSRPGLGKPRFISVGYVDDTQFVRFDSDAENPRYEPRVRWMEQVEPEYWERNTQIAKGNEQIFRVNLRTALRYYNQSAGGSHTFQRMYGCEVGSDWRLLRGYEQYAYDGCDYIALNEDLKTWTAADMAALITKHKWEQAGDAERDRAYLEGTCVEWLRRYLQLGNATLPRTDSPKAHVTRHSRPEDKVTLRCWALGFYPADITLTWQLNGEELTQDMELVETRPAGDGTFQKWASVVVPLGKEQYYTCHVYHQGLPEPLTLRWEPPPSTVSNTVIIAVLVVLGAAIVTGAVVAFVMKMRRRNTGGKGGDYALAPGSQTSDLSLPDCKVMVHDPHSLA
Sequence of H-2 D^d (P01900 whole entry, looked up): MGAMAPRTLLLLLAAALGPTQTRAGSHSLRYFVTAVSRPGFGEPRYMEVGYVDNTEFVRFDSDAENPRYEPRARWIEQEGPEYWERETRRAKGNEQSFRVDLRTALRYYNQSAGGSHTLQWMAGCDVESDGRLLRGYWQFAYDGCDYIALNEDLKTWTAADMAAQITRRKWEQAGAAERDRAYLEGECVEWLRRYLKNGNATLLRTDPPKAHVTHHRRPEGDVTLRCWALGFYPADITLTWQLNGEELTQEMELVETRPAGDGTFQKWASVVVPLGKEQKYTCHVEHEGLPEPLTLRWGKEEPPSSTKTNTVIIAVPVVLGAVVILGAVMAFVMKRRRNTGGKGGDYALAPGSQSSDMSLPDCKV

Row | Sequence | Normalized average relative binding affinity(ARB) [1] | Normalized average relative binding affinity(ARB) [2] | Normalized average relative binding affinity(ARB) [3] | Normalized average relative binding affinity(ARB) [4] | Normalized average relative binding affinity(ARB) [5] | Normalized average relative binding affinity(ARB) [6] | Normalized average relative binding affinity(ARB) [7] | Normalized average relative binding affinity(ARB) [8] | Normalized average relative binding affinity(ARB) [9] | Normalized average relative binding affinity(ARB) [10] | Normalized average relative binding affinity(ARB) [11] | Normalized average relative binding affinity(ARB) [12] | Normalized average relative binding affinity(ARB) [13] | Normalized average relative binding affinity(ARB) [14] | Normalized average relative binding affinity(ARB) [15] | Normalized average relative binding affinity(ARB) [16]
1 | XXXXXKXXX [3064.0109] | 0.62 | 0.26 | 0.15 | 0.073 | 0.10 | 0.24 | 0.30 | 0.21 | 0.14 | 0.36 | 0.34 | 0.13 | 0.51 | 0.54 | 0.30 | 0.28
2 | XXXXXLXXX [3064.0110] | 0.21 | 0.37 | 0.18 | 0.061 | 0.28 | 0.16 | 0.54 | 0.31 | 0.29 | 0.34 | 0.25 | 0.49 | 0.64 | 0.55 | 0.33 | 0.12
3 | XXXXXMXXX [3064.0111] | 0.43 | 0.43 | 0.23 | 0.031 | 0.18 | 0.14 | 0.48 | 0.24 | 0.18 | 0.31 | 0.36 | 0.41 | 0.52 | 0.52 | 0.44 | 0.44
4 | XXXXXNXXX [3064.0112] | 0.29 | 0.0067 | 0.13 | 0.039 | 0.13 | 0.45 | 0.39 | 1.0 | 0.16 | 0.22 | 0.32 | 0.027 | 0.56 | 0.40 | 0.73 | 0.26
5 | XXXXXPXXX [3064.0113] | 0.15 | 0.47 | 0.15 | 0.039 | 0.19 | 0.57 | 0.094 | 0.39 | 0.14 | 0.15 | 0.38 | 0.20 | 0.23 | 0.067 | 0.27 | 0.11
6 | XXXXXQXXX [3064.0114] | 0.11 | 0.53 | 0.13 | 0.031 | 0.21 | 0.085 | 0.51 | 0.46 | 0.12 | 0.19 | 0.12 | 0.57 | 0.55 | 0.39 | 0.15 | 0.21
7 | XXXXXRXXX [3064.0115] | 0.11 | 0.51 | 0.095 | 0.15 | 0.21 | 0.43 | 0.42 | 0.36 | 0.088 | 1.0 | 0.39 | 0.25 | 0.50 | 0.27 | 0.36 | 0.13
8 | XXXXXSXXX [3064.0116] | 0.18 | 0.51 | 0.17 | 0.052 | 0.44 | 0.57 | 0.63 | 0.055 | 0.33 | 0.25 | 0.70 | 0.45 | 0.70 | 0.32 | 0.80 | 0.35
